Data as given in ChEMBL document CHEMBL1137066, “Tryptamine-based human beta3-adrenergic receptor agonists. Part 2: SAR of the methylene derivatives” (Bioorg Med Chem Lett, 2004).

Assays:
[1] = target: T1, Beta-3 adrenergic receptor (Homo sapiens, UniProt P13945); experiment: (§1) Agonistic activity at human Beta-2 adrenergic receptor at 1000 nM concentration; assay type: functional
Target sequence in this assay (P13945 whole entry, looked up): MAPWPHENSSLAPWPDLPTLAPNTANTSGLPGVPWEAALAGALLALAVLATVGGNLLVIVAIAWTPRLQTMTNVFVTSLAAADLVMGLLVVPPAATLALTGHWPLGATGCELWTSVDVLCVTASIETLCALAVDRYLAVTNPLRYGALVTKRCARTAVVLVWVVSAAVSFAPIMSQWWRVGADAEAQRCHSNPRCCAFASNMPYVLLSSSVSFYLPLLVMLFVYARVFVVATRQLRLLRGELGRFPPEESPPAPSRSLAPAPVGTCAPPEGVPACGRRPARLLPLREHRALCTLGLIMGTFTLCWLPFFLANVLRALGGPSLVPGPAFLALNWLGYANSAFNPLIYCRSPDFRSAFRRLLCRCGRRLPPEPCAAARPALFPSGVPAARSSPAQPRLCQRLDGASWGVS

[2] = target: T2, Beta-2 adrenergic receptor (Homo sapiens, UniProt P07550); experiment: Intrinsic activity determined by measuring cAMP accumulation in CHO cells expressing cloned human Beta-2 adrenergic receptor and activity expressed as percentage of maximal stimulation with isoproterenol; assay type: functional, cell-based
Target sequence in this assay (P07550 whole entry, looked up): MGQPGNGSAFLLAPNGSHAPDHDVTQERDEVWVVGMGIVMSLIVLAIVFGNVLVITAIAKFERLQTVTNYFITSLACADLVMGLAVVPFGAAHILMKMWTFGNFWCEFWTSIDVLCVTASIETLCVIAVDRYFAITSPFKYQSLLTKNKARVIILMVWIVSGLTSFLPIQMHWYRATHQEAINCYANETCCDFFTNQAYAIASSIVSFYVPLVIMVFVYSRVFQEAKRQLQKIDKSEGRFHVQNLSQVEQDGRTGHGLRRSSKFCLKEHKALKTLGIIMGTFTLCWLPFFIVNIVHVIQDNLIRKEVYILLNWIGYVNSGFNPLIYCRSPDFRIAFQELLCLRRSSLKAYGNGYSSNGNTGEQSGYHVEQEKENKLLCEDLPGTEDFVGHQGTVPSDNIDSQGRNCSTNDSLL

[3] = target: T3, Beta-1 adrenergic receptor (Homo sapiens, UniProt P08588); experiment: Agonistic activity at human Beta-1 adrenergic receptor at 1000 nM concentration; assay type: functional
Target sequence in this assay (P08588 whole entry, looked up): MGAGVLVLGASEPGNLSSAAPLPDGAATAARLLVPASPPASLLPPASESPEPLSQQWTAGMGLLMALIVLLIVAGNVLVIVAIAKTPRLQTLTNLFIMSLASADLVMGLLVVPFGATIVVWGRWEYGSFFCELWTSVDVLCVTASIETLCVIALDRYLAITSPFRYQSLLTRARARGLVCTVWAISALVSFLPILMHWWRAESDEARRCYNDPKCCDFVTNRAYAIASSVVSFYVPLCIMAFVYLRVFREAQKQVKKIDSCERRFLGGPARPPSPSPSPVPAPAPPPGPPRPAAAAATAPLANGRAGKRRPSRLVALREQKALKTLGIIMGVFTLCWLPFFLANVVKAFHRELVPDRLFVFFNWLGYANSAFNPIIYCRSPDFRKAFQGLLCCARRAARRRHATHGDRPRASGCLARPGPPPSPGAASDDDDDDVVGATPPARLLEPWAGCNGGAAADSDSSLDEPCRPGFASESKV

[4] = target: T1, Beta-3 adrenergic receptor; experiment: Agonistic activity was determined by measuring cAMP accumulation in CHO cells expressing cloned human Beta-3 adrenergic receptor; assay type: functional, cell-based
Target sequence in this assay (P13945 whole entry): as the sequence (P13945 whole entry, looked up) above

[5] = target: T1, Beta-3 adrenergic receptor; experiment: Intrinsic activity expressed as percentage of maximal stimulation with isoproterenol of Beta-3 adrenergic receptor; assay type: functional
Target sequence in this assay (P13945 whole entry, looked up): as above

[6] = target: T2, Beta-2 adrenergic receptor; experiment: as §1; assay type: functional
Target sequence in this assay (P07550 whole entry, looked up): as the sequence (P07550 whole entry, looked up) above

[7] = target: T1, Beta-3 adrenergic receptor; experiment: Binding inhibition constant was determined by inhibition of [125I]iodocyanopindolol binding to Beta-3 adrenergic receptor
Target sequence in this assay (P13945 whole entry): as the sequence (P13945 whole entry, looked up) above

[8] = target: T2, Beta-2 adrenergic receptor; experiment: Binding inhibition constant was determined by inhibition of [125I]iodocyanopindolol binding to Beta-2 adrenergic receptor
Target sequence in this assay (P07550 whole entry): as the sequence (P07550 whole entry, looked up) above

[9] = target: T3, Beta-1 adrenergic receptor; experiment: Binding inhibition constant was determined by inhibition of [125I]-iodocyanopindolol binding to Beta-1 adrenergic receptor
Target sequence in this assay (P08588 whole entry): as the sequence (P08588 whole entry, looked up) above

[10] = target: T3, Beta-1 adrenergic receptor; experiment: Agonistic activity was determined by measuring cAMP accumulation in CHO cells expressing cloned human Beta-1 adrenergic receptor; assay type: functional, cell-based
Target sequence in this assay (P08588 whole entry): as the sequence (P08588 whole entry, looked up) above

[11] = target: T3, Beta-1 adrenergic receptor; experiment: Intrinsic activity expressed as percentage of maximal stimulation with isoproterenol of Beta-1 adrenergic receptor; assay type: functional
Target sequence in this assay (P08588 whole entry, looked up): as above

[12] = target: T2, Beta-2 adrenergic receptor; experiment: Agonistic activity was determined by measuring cAMP accumulation in CHO cells expressing cloned human Beta-2 adrenergic receptor; assay type: functional, cell-based
Target sequence in this assay (P07550 whole entry): as the sequence (P07550 whole entry, looked up) above

SMILES	IA [1] [%]	Activity [2] [%]	Activity [3] [%]	EC50 [4] [nM]	IA [5] [%]	Activity [6] [%]	Ki [7] [nM]	Ki [8] [nM]	Ki [9] [nM]	EC50 [10] [nM]	IA [11] [%]	EC50 [12] [nM]
CS(=O)(=O)Oc1cccc2c(CCNC[C@H](O)c3cccc(NS(=O)(=O)c4ccc(N)cc4)c3)c[nH]c12			5	8.4	85	15						
CS(=O)(=O)Oc1cccc2c(CCNC[C@H](O)c3cccc(NS(=O)(=O)c4ccccc4N)c3)c[nH]c12			7	3	80	9						
CS(=O)(=O)Oc1cccc2c(CCNC[C@H](O)c3cccc(NS(=O)(=O)c4ccc(Br)s4)c3)c[nH]c12			6	2.8	82	17						
CS(=O)(=O)Oc1cccc2c(CCNC[C@H](O)c3cccc(NS(=O)(=O)CC(F)(F)F)c3)c[nH]c12			0	48	49	24						
COc1cccc2c(CCNC[C@H](O)c3cccc(NS(=O)(=O)c4cccs4)c3)c[nH]c12			6	13	87	16						
O=S(=O)(Nc1cccc([C@@H](O)CNCCc2c[nH]c3c(OCc4ccccc4)cccc23)c1)c1cccs1			10	7.6	81	32						
O=S(=O)(Nc1cccc([C@@H](O)CNCCc2c[nH]c3ccccc23)c1)c1cccs1			2	21	73	15						
CS(=O)(=O)Oc1cccc2c(CCNC[C@H](O)c3cccc(NS(=O)(=O)c4cc(Cl)c(Cl)s4)c3)c[nH]c12			7	6.7	93	18						
Cc1cccc2c(CCNC[C@H](O)c3cccc(NS(=O)(=O)c4cccs4)c3)c[nH]c12			3	25	77	9						

Molecules with a lower EC50 [4], results first:

IA [1] [%]	Activity [2] [%]	Activity [3] [%]	EC50 [4] [nM]	IA [5] [%]	Activity [6] [%]	Ki [7] [nM]	Ki [8] [nM]	Ki [9] [nM]	EC50 [10] [nM]	IA [11] [%]	EC50 [12] [nM]	SMILES
96	13	11	1									CS(=O)(=O)Oc1cccc2c(CCNC[C@H](O)c3cccc(NS(=O)(=O)c4cccc(Cl)c4)c3)c[nH]c12
		12	1.7	89	23	33	223	230				CS(=O)(=O)Oc1cccc2c(CCNC[C@H](O)c3cccc(NS(=O)(=O)c4cccs4)c3)c[nH]c12
			0.21	97		4	48	66	44	36	18	C[C@H](Cc1c[nH]c2c(OS(C)(=O)=O)cccc12)NC[C@H](O)c1cccc(NS(=O)(=O)c2cccs2)c1
		11	0.94	97	10							COc1cccc(S(=O)(=O)Nc2cccc([C@@H](O)CNCCc3c[nH]c4c(OS(C)(=O)=O)cccc34)c2)c1
		3	0.31	105	6	2.6	70	89				CS(=O)(=O)Oc1cccc2c(CCNC[C@H](O)c3cccc(NS(=O)(=O)c4cccc(N)c4)c3)c[nH]c12
		10	2.4	97	8							CS(=O)(=O)Oc1cccc2c(CCNC[C@H](O)c3cccc(NS(=O)(=O)c4cccc(F)c4)c3)c[nH]c12
		14	2	86	15							CS(=O)(=O)Oc1cccc2c(CCNC[C@H](O)c3cccc(NS(=O)(=O)c4ccccc4)c3)c[nH]c12
